According to patent publication US12264173B2 (GILEAD SCIENCES, INC., priority 2020, dated 2025):
Where two headings read alike, the source gives them in different places.

Tests used:
Format in all cases: cell-based
HCV Rep 2A = HCV Rep 2A EC50 (replicon luciferase)
Protocol: (§1) Compounds were serially diluted in ten steps of 1:3 dilutions in 384-well plates. All serial dilutions were performed in four replicates per compound within the same 384-well plate. […] To each well of a black polystyrene 384-well plate (Greiner Bio-one, Monroe, NC), 90 μL of cell culture medium (without Geneticin) containing 2000 suspended HCV replicon cells was added with a Biotek μFlow workstation. For compound transfer into cell culture plates, 0.4 μL of compound solution from the compound serial dilution plate was transferred to the cell culture plate on a Biomek FX workstation. The DMSO concentration in the final assay wells was 0.44%. The plates were incubated for 3 days at 37° C. with 5% CO2 and 85% humidity. The HCV replicon assay was a multiplex assay, able to assess both cytotoxicity and antireplicon activity from the same well. The CC50 assay was performed first. The media in the 384-well cell culture plate was aspirated, and the wells were washed four times with 100 μL of PBS each, using a Biotek ELX405 plate washer. A volume of 50 μL of a solution containing 400 nM calcein AM (Anaspec, Fremont, CA) in 1×PBS was added to each well of the plate with a Biotek μFlow workstation. The plate was incubated for 30 min at room temperature before the fluorescence signal (excitation 490 nm, emission 520 nm) was measured with a Perkin-Elmer Envision plate reader. The EC50 assay was performed in the same wells as the CC50 assay. The calcein-PBS solution in the 384-well cell culture plate was aspirated with a Biotek ELX405 plate washer. A volume of 20 μL of Dual-Glo luciferase buffer (Promega, Madison, WI) was added to each well of the plate with a Biotek μFlow Workstation. The plate was incubated for 10 min at room temperature. A volume of 20 μL of a solution containing a 1:100 mixture of Dual-Glo Stop & Glo substrate (Promega, Madison, WI) and Dual-Glo Stop & Glo buffer (Promega, Madison, WI) was added to each well of the plate with a Biotek μFlow Workstation. The plate was then incubated at room temperature for 10 min before the luminescence signal was measured with a Perkin-Elmer Envision Plate Reader.

HCV Rep 1B = HCV Rep 1B EC50 (replicon luciferase)
Protocol: as §1

RSV strain A2 = test: microbe, parasite or virus in culture; conditions: Table 3, HEp-2 cells, RSV A2, 4 days, read-out: RSV HEp-2 EC50
Procedure, shortened: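 Cytopathic-effect protection assay: HEp-2 cells (50,000/mL) infected with pre-titered RSV A2 onto 3-fold serial compound dilutions, incubated 4 days at 37° C. Cell viability read by CellTiter-Glo luminescence; percent inhibition derived against 0% and 100% virus-inhibition controls.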

RSV A2 = test: RSV NHBE EC50 (RSV A2 antiviral assay in NHBE cells); conditions: read-out: RSV NHBE EC50
Procedure, shortened: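 NHBE cells (7,500/well, passage ≤6) given 3-fold serially diluted compound (0.05% DMSO final), then infected with RSV A2 at 1×10^4.5 tissue culture infectious doses/mL. After 4 days at 37 °C, viability measured by CellTiter-Glo luminescence at 25 °C.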

HRV16 = HRV16 HeLa EC50 (cytopathic effect in H1-HeLa cells); conditions: read-out: HRV16 HeLa EC50
Procedure, shortened: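 H1-HeLa cells seeded one day before, given 3-fold serial compound dilutions in triplicate just prior to infection with pre-titrated virus. Incubated 96 h at 33 °C/5% CO2; protection from cytopathic effect read as viability by CellTiter-Glo luminescence, normalised to infected untreated (0%) and uninfected (100%) controls.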

DENV2 replicon = test: DENV-2 Huh-7 Rep EC50 (replicon luminescence)
Procedure, shortened: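 Huh-7 cells carrying a DENV2 replicon, 5,000 cells/well, were incubated with dosed compounds for 48 h at 37° C. EnduRen live-cell substrate was added 1.5 h before luminescence reading. EC50 came from dose-response against DMSO-only wells.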

[1] = test system: Dengue serotype 2 New Guinea C (NGC) strain; test: DENV-2 Huh-7 EC50 (qPCR in Huh7 cells)
Protocol: Huh7 (Human hepatocarcinoma 7) cells were maintained in 10% FCS-containing DMEM complete media. On the day of the assay, cells were trypsinized (0.1% Trypsin-EDTA), washed and infected for 2 hours in serum-free DMEM with Dengue serotype 2 New Guinea C (NGC) strain at MOI=0.1 with gentle agitation at 37° C. After 2 hours, cells were washed with serum-free media and suspended in 10% FCS-containing DMEM (Gibco, supplemented with sodium pyruvate, NEAA, Penicillin-Streptomycin). 10^5 cells were plated in triplicate in 96-well plates with compounds dispensed at graded doses (Hewlett-Packard D300 Digital Dispenser). All wells were normalized to 0.25% DMSO. At 48 hours, cells were washed with 1×PBS and all supernatants removed. Total RNA was extracted using RNEasy 96 plates (Qiagen) and used to generate first-strand cDNA using XLT cDNA 5× Supermix (QuantaBio). cDNA was used as a template in a Taqman qPCR duplex reaction specific to DENV2 viral and GAPDH gene expression. EC50 values were determined using Prism Graphpad software, with normalization to a positive control and no compound negative control wells.

[2] = Table 4, replicon cells, 3 days, read-out: HCV Rep 2A EC50
[3] = Table 4, replicon cells, 3 days, read-out: HCV Rep 1B EC50
[4] = Table 3, NHBE cells, RSV A2, 4 days
[5] = human respiratory syncytial virus, NHBE, Table 5 comparative activity, 2',3'-OH vs -OC(O)iPr
[6] = HeLa, Table 5 comparative activity, 2',3'-OH vs -OC(O)iPr
[7] = Dengue virus, Huh-7, Table 5 comparative activity, 2',3'-OH vs -OC(O)iPr, read-out: DENV Huh7 EC50
[8] = Table 3, Huh-7 DENV2 replicon cells, 48 hours, read-out: DENV-2 REP Huh7 EC50

## CC(C)C(=O)O[C@H]1[C@H](c2ccc3c(N)ncnn23)O[C@](C#N)(COP(=O)(N[C@@H](C)C(=O)OC2COC2)Oc2ccccc2)[C@H]1OC(=O)C(C)C (single isomer, unassigned) [Example 185]
HCV Rep 2A; [2]
  EC50: 0.73 µM
HCV Rep 1B; [3]
  EC50: 0.217 µM
RSV strain A2
  EC50: 0.026 µM

## CC(C)C(=O)OC1C(c2ccc3c(N)ncnn23)OC(C#N)(COP(=O)(NC(C)C(=O)OC2CCN(C)C2)Oc2ccccc2)C1OC(=O)C(C)C (single isomer, unassigned) [Example 234]
RSV A2; [4]
  EC50: 0.03 µM
HCV Rep 2A; [2]
  EC50: 1.82 µM
HCV Rep 1B; [3]
  EC50: 0.905 µM
RSV strain A2
  EC50: 0.057 µM

## CCOC(=O)[C@H](C)N[P@](=O)(OC[C@@]1(C#N)O[C@@H](c2ccc3c(N)ncnn23)[C@H](O)[C@@H]1O)Oc1ccccc1 [Example 29, Ethyl ((S)-(((2R,3S,4R,5S)-5-(4-aminopyrrolo[2,1-f][1,2,4]triazin-7-yl)-2-cyano-3,4-dihydroxytetrahydrofuran-2-yl)methoxy)(phenoxy)phosphoryl)-L-alaninate]
RSV A2; [5]
  EC50: 0.932 µM
HRV16; [6]
  EC50: 0.678 µM
DENV2 replicon; Dengue virus, DENV2, Huh-7, read-out: DENV Rep EC50
  EC50: 36.1 µM
[1]; [7]
  EC50: 1.88 µM

## COC(=O)[C@H](C)N[P@](=O)(OC[C@@]1(C#N)O[C@@H](c2ccc3c(N)ncnn23)[C@H](O)[C@@H]1O)Oc1ccccc1 [Example 52, methyl ((S)-(((2R,3S,4R,5S)-5-(4-aminopyrrolo[2,1-f][1,2,4]triazin-7-yl)-2-cyano-3,4-dihydroxytetrahydrofuran-2-yl)methoxy)(phenoxy)phosphoryl)-L-alaninate]
RSV A2; [5]
  EC50: 0.252 µM
HRV16; [6]
  EC50: 1.25 µM
HCV Rep 2A; Hepatitis C virus, Table 5 comparative activity, 2',3'-OH vs -OC(O)iPr, read-out: HCV Rep2A EC50
  EC50: 7.46 µM
HCV Rep 1B; Hepatitis C virus, Table 5 comparative activity, 2',3'-OH vs -OC(O)iPr, read-out: HCV Rep1B EC50
  EC50: 3.96 µM
[1]; [7]
  EC50: 5.48 µM

## CCC(=O)O[C@H]1[C@H](c2ccc3c(N)ncnn23)O[C@](C#N)(CO[P@](=O)(N[C@@H](C)C(=O)OCC2CC2)Oc2ccccc2)[C@H]1OC(=O)CC [Example 100]
RSV A2; [4]
  EC50: 0.013 µM
HRV16; Table 3, H1-HeLa cells, 96 h
  EC50: 0.147 µM
DENV2 replicon; [8]
  EC50: 18.8 µM
RSV strain A2
  EC50: 0.058 µM
[1]; Table 3, Huh7 cells, 48 hours, read-out: DENV-2 Huh7 EC50
  EC50: 1.13 µM

## CC(C)C(=O)O[C@H]1[C@H](c2ccc3c(/N=C/N(C)C)ncnn23)O[C@](C#N)(COP(=O)(N[C@@H](C)C(=O)OC2CCOCC2)Oc2ccccc2)[C@H]1OC(=O)C(C)C (stereo partly drawn) [Example 218, (2R,3S,4S,5S)-2-cyano-5-(4-(((E)-(dimethylamino)methylene)amino)pyrrolo[2,1-f][1,2,4]triazin-7-yl)-2-((((((S)-1-oxo-1-((tetrahydro-2H-pyran-4-yl)oxy)propan-2-yl)amino)(phenoxy)phosphoryl)oxy)methyl) tetrahydrofuran-3,4-diyl bis(2-methylpropanoate)]
RSV A2; [4]
  EC50: 0.017 µM
HRV16; Table 3, H1-HeLa cells, 96 h
  EC50: 0.112 µM
DENV2 replicon; [8]
  EC50: 5.51 µM
RSV strain A2
  EC50: 0.03 µM

## C/C(=N\c1ncnn2c([C@@H]3O[C@](C#N)(COP(=O)(N[C@@H](C)C(=O)OC4CCOCC4)Oc4ccccc4)[C@@H](OC(=O)C(C)C)[C@H]3OC(=O)C(C)C)ccc12)N(C)C (stereo partly drawn) [Example 219, (2R,3S,4S,5S)-2-cyano-5-(4-(((E)-1-(dimethylamino)ethylidene)amino)pyrrolo[2,1-f][1,2,4]triazin-7-yl)-2-((((((S)-1-oxo-1-((tetrahydro-2H-pyran-4-yl)oxy)propan-2-yl)amino)(phenoxy)phosphoryl)oxy)methyl) tetrahydrofuran-3,4-diyl bis(2-methylpropanoate)]
RSV A2; [4]
  EC50: 0.082 µM
HRV16; Table 3, H1-HeLa cells, 96 h
  EC50: 0.356 µM
DENV2 replicon; [8]
  EC50: 16.4 µM
RSV strain A2
  EC50: 0.067 µM

## COC(=O)[C@H](C)N[P@](=O)(OC[C@@]1(C#N)O[C@@H](c2ccc3c(/N=C/N4CCN(C)CC4)ncnn23)[C@H](OC(=O)C(C)C)[C@@H]1OC(=O)C(C)C)Oc1ccccc1 [Example 261, (2R,3S,4S,5S)-2-cyano-2-((((S)-(((S)-1-methoxy-1-oxopropan-2-yl)amino)(phenoxy)phosphoryl)oxy)methyl)-5-(4-(((E)-(4-methylpiperazin-1-yl)methylene)amino)pyrrolo[2,1-f][1,2,4]triazin-7-yl)tetrahydrofuran-3,4-diyl bis(2-methylpropanoate)]
RSV A2; human respiratory syncytial virus, NHBE, 96 h, Table 3, NHBE cells, RSV A2, 4 days
  EC50: 0.013 µM
DENV2 replicon; Dengue virus, DENV2, Huh-7, 48 h, read-out: DENV-2 REP Huh7 EC50
  EC50: 2.34 µM
HCV Rep 2A; Hepatitis C virus, 72 h, Table 4, replicon cells, 3 days, read-out: HCV Rep 2A EC50
  EC50: 1.22 µM
HCV Rep 1B; Hepatitis C virus, 72 h, Table 4, replicon cells, 3 days, read-out: HCV Rep 1B EC50
  EC50: 0.524 µM
RSV strain A2; human respiratory syncytial virus, HEp-2, 96 h
  EC50: 0.042 µM
